As usually defined, the Ki is a dissociation constant, usually derived from enzyme kinetics or from competition with a known ligand. What is called IC50 is the concentration that gives 50% inhibition. The term inhibition denotes the drop in the measured response relative to a control, in per cent.

The target in assay [1] is T1, 5-hydroxytryptamine receptor 1A (Rattus norvegicus, UniProt P19327).
T1 sequence (P19327 whole entry): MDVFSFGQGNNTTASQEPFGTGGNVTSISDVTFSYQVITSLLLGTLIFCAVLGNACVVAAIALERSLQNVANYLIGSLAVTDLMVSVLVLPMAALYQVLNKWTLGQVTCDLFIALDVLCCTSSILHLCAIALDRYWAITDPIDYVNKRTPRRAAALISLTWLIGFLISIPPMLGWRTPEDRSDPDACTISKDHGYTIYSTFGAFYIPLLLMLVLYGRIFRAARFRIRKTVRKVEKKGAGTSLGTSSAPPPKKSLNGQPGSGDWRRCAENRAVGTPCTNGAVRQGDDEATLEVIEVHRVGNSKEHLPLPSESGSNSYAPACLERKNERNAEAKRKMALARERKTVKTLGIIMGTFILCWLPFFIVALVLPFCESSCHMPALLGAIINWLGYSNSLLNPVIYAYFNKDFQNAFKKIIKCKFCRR
As to the kind of experiment: Binding affinity towards 5-hydroxytryptamine 1A receptor in rat frontal cortex homogenates. In kind it is tissue-based.

Assay [2] deals with Sodium-dependent serotonin transporter (Rattus norvegicus, UniProt P31652). As to the kind of experiment: Binding affinity towards Serotonin transporter (5-HTT) in rat frontal cortex homogenates. The assay is classed as tissue-based.
Sequence of Sodium-dependent serotonin transporter (P31652 whole entry): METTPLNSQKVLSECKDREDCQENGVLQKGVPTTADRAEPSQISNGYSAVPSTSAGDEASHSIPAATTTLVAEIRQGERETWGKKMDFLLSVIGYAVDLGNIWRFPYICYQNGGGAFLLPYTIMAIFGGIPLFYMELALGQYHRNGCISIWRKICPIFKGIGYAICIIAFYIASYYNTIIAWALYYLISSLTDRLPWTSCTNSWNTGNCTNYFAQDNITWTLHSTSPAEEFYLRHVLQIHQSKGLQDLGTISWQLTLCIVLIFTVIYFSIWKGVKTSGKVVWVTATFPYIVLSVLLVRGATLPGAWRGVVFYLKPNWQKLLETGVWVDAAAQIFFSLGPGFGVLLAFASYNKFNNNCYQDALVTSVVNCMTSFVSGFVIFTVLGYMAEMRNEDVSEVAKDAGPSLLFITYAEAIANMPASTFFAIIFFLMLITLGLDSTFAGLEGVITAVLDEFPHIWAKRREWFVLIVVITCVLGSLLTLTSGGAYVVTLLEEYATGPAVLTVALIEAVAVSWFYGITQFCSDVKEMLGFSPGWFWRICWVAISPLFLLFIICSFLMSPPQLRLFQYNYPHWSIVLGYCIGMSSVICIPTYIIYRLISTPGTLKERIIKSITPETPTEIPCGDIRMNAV
For assay [3], the target named is T2, 5-hydroxytryptamine receptor 1A (Rattus norvegicus) (UniProt P19327).
T2 sequence (whole entry): T1 sequence (P19327 whole entry)
Put plainly: Percent increase of R(+)-8-OH-DPAT stimulated [35S]GTP-gamma-S, binding to 5-hydroxytryptamine 1A receptor in isolated rat hippocampal membranes. In kind it is functional, cell membranes. The conditions noted are these: Membrane. (In general: GTPγS resists hydrolysis and so accumulates on activated G proteins.)

The target of assay [4] is T2, 5-hydroxytryptamine receptor 1A (Rattus norvegicus). Put plainly: Antagonist activity to stimulate binding of [35S]GTP-gamma-S, to 5-hydroxytryptamine 1A receptor in isolated rat hippocampal membranes. The assay is classed as functional, cell membranes. The settings on record: Membrane, scale: (fM of GTP-gammaS bound).
For assay [5] the target is unchanged. As to the kind of experiment: Inhibition of (+)-8-OH-DPAT stimulated [35S]GTP-gamma-S, binding in rat hippocampal membranes. The assay is classed as functional, cell membranes. The conditions noted are these: Hippocampus, Membrane, scale: (fM of GTP-gammaS bound).
The target is the same in assay [6]. Put plainly: Antagonist activity to stimulate binding of [35S]-GTP-gamma S binding to 5-hydroxytryptamine 1A receptor in isolated rat hippocampal membranes. The conditions noted are these: Membrane, scale: (fM of GTP-gammaS bound). The assay is classed as functional, cell membranes.
Assay [7] concerns the target T1, 5-hydroxytryptamine receptor 1A. Put plainly: Inhibition of (+)-8-OH-DPAT stimulated [35S]GTP-gamma-S, binding to 5-hydroxytryptamine 1A receptor in hippocampal membranes. In kind it is functional, cell membranes.
In assay [8] the target is T2, 5-hydroxytryptamine receptor 1A (Rattus norvegicus). Put plainly: Percent inhibition of (+)-8-OH-DPAT stimulated [35S]GTP-gamma-S, binding to 5-hydroxytryptamine 1A receptor in hippocampal membranes. In kind it is functional, cell membranes. Set-up: concentration or dose not given beside the values. The settings on record: concentration not given here.
The target of assay [9] is T3, 5-hydroxytryptamine receptor 1A (Mus musculus) (UniProt Q64264).
T3 sequence (whole entry): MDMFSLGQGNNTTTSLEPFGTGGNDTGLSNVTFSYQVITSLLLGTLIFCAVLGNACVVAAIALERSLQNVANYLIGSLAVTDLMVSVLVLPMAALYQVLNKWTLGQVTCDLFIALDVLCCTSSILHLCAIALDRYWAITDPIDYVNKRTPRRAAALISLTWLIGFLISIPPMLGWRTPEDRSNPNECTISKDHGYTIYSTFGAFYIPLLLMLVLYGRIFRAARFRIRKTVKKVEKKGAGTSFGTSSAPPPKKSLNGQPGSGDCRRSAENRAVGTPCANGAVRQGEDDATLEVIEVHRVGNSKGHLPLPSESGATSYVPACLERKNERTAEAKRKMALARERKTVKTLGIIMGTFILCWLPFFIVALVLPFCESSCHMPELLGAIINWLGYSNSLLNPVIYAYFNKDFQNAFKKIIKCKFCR
Put plainly: Antagonist activity at 5-hydroxytryptamine 1A receptor against (+)-8-OH-DPAT induced hypothermia in mice at 10 mg/kg after 15 min. The assay is classed as functional, organism-based. Set-up: dose 10 mg/kg.

Assay [10] concerns the target T3, 5-hydroxytryptamine receptor 1A (Mus musculus). As to the kind of experiment: Antagonist activity at 5-hydroxytryptamine 1A receptor against (+)-8-OH-DPAT induced hypothermia in mice at 10 mg/kg after 60 min. The assay is classed as functional, organism-based. Set-up: dose 10 mg/kg.
Assay [11] has the same target. Put plainly: Antagonist activity at 5-hydroxytryptamine 1A receptor against (+)-8-OH-DPAT induced hypothermia in mice at 1 mg/kg after 15 min. Set-up: dose 1 mg/kg. The assay is classed as functional, organism-based.
Assay [12] shares this target. Put plainly: Antagonist activity at 5-hydroxytryptamine 1A receptor against (+)-8-OH-DPAT induced hypothermia in mice at 1 mg/kg after 30 min. In kind it is functional, organism-based. Set-up: dose 1 mg/kg.
The target is the same in assay [13]. Put plainly: Antagonist activity at 5-hydroxytryptamine 1A receptor against (+)-8-OH-DPAT induced hypothermia in mice at 1 mg/kg after 60 min. The assay is classed as functional, organism-based. Set-up: dose 1 mg/kg.
Assay [14] has the same target. As to the kind of experiment: Antagonist activity at 5-hydroxytryptamine 1A receptor against (+)-8-OH-DPAT induced hypothermia in mice at 10 mg/kg after 30 min. Set-up: dose 10 mg/kg. In kind it is functional, organism-based.

As for `OC(CCN1CCN(c2ccc3sccc3c2)CC1)c1csc2ccccc12` (stereo not given), the Ki was 913 nM in [1] (read-out: Ki) and 3.2 nM in assay [2].
`OC(CCN1CCN(c2cccc3ccccc23)CC1)c1csc2ccc(F)cc12` (stereo not given): the Ki in assay [2] is 6 nM.
`OC(CCN1CCN(c2cccc3c2OCCCO3)CC1)c1csc2ccc(F)cc12` (stereo not given): the Increase in assay [3] came to 22.8%. Further, the figures for the inhibition constant (Ki) in assay [1] (read-out: Ki) and in assay [2] were 3 nM and 21.2 nM, respectively. The Basal was 14.4 in assay [4] and 18.7 in assay [5]. Besides, the results for the Max in [5] and in assay [6] were 20.4 and 17.7, respectively. For the same molecule, the concentration for half-maximal inhibition (IC50) in assay [7] was 360 nM. The inhibition in assay [8] was determined as 84%.
`OC(CCN1CCN(c2cccc3c2OCO3)CC1)c1csc2ccc(F)cc12` (stereo not given): the inhibitory constant (Ki) in assay [1] (read-out: Ki) is 9.4 nM; in assay [2] it was 58 nM.
The like results for `OC(CCN1CCN(c2cccc3ccccc23)CC1)c1csc2ccccc12` (stereo not given) were, in that order, 66.7 nM and 81.7 nM.
For the molecule `OC(CCN1CCN(c2cccc3c2OCCCO3)CC1)c1csc2ccccc12` (stereo not given), the Ki in assay [1] amounted to 1.9 nM; in assay [2] it was 77 nM.
With `CCCN(CCC)C1CCc2cccc(O)c2C1` (stereo not given), the Increase in assay [3] is 91.8%. The Basal in [4] was 13.5; in assay [5] it was 13. For the same molecule, the Max is 23.8 in assay [5] and 25.9 in assay [6].
In the case of `OC(CCN1CCN(c2cccc3c2OCCO3)CC1)c1csc2ccc(F)cc12` (stereo not given), the Increase in assay [3] came to 17.9%. Moreover, the Change in body temperature in assay [9] is -1.33 °C; in assay [10], -0.84 °C; in assay [11] it was -1.49 °C; in assay [12], -1.04 °C; in assay [13], -1.04 °C; in assay [14], -0.72 °C. Also, the Basal in assay [4] is 11.9; in assay [5] it was 19.1. Further, the Max is 18.9 in [5] and 14 in [6]. This molecule displayed a Ki in [2] of 16 nM. In assay [7], the half-maximal inhibitory concentration (IC50) came to 31.2 nM. Further, the inhibition in [8] is 101%.
`OC(CCN1CCN(c2cccc3[nH]ccc23)CC1)c1csc2ccccc12` (stereo not given): the Increase in assay [3] was 26.3%. Further, the Change in body temperature in [9] was -1.03 °C; in [10], -0.8 °C; in assay [11] it was -2.08 °C; in assay [12], -1.59 °C; in [13], -1.13 °C; in [14], 0.84 °C. Further, the Basal came to 13.4 in assay [4] and 12.8 in [5]. In addition, the results for the Max in [5] and in assay [6] were 13.9 and 16.9, respectively. In [7], this molecule gave an IC50 of 31.2 nM. Besides, the inhibition in assay [8] was 90%.
For `OC(CCN1CCN(c2cccc3ncccc23)CC1)c1csc2ccccc12` (stereo not given), the Ki in assay [1] (read-out: Ki) worked out at 36.8 nM; in assay [2], 32.5 nM.
For `OC(CCN1CCN(c2cccc3cccnc23)CC1)c1csc2ccc(F)cc12` (stereo not given), the Increase in assay [3] was determined as 71.4%. This molecule registered a Basal in [4] of 13.9. In assay [6], this molecule gave a Max of 23.9.
Take `OC(CCN1CCN(c2cccc3[nH]ccc23)CC1)c1csc2ccc(F)cc12` (stereo not given): the Increase in assay [3] came out at 35.5%. The Change in body temperature is -0.95 °C in [9]; -0.95 °C in assay [10]; -3.28 °C in assay [11]; -3.61 °C in assay [12]; -2.72 °C in [13]; -0.89 °C in assay [14]. Further, the Basal stood at 10.1 in assay [4] and 11.2 in assay [5]. Moreover, the Max in assay [5] amounted to 10.1; in assay [6] it was 13.7. In addition, the concentration for half-maximal inhibition (IC50) in [7] was 16.1 nM. For the same molecule, in [8], the inhibition turned out to be 110%.
For the molecule `OC(CCN1CCN(c2cccc3cccnc23)CC1)c1csc2ccccc12` (stereo not given), in assay [3], the Increase was 31%. Further, the Ki in [1] (read-out: Ki) is 6.3 nM; in [2] it was 24 nM. In addition, the Change in body temperature is -0.8 °C in assay [9]; -0.2 °C in [10]; -2.38 °C in assay [11]; -1.86 °C in assay [12]; -1.09 °C in assay [13]; -0.52 °C in assay [14]. Besides, the Basal in assay [4] was 11.9; in [5], 16.4. The Max in assay [5] is 19.7; in [6], 15.6. Besides, the concentration for half-maximal inhibition (IC50) in assay [7] is 18 nM. Further, the inhibition in assay [8] was determined as 69%.
Take `OC(CCN1CCN(c2cnc3ccccc3c2)CC1)c1csc2ccccc12` (stereo not given): the Ki came to 995 nM in [1] (read-out: Ki) and 4.2 nM in assay [2].
For `OC(CCN1CCN(c2cccc3c2OCCO3)CC1)c1csc2ccccc12` (stereo not given), the Increase in [3] came out at 3.4%. For the same molecule, the inhibition constant Ki in assay [1] (read-out: Ki) is 5.7 nM; in assay [2], 50 nM. Moreover, the Change in body temperature is -1.38 °C in assay [9]; -0.5 °C in assay [10]; -2.9 °C in assay [11]; -2.47 °C in [12]; -1.94 °C in assay [13]; -1.03 °C in assay [14]. Moreover, the Basal in assay [4] is 15.6; in [5] it was 18.5. Moreover, the Max in assay [5] was 19.1; in [6] it was 16.1. Also, the IC50 in assay [7] came out at 56.2 nM. The inhibition in [8] stood at 90%.

The values are drawn from ChEMBL document CHEMBL1135778, “Synthesis and molecular modeling of new 1-aryl-3-[4-arylpiperazin-1-yl]-1-propane derivatives with high affinity at the serotonin transporter and at 5-HT(1A) receptors” (J Med Chem, 2002).
